≈ marks a conversion by molar mass, not a printed value. Calls of active or inactive are those of the source. The calls are words filed in the database; no cut-off is given here.
Columns and labels:
[1] = system: Staphylococcus aureus; assay: Antibacterial activity against Staphylococcus aureus Newman assessed as inhibition of bacterial growth incubated for 18 hrs by broth microdilution method; format: functional
[2] = system: Cell membrane; assay: Induction of cell membrane depolarization in Staphylococcus aureus Newman assessed as bacterial cells with polarized membrane potential at MIC incubated for 25 to 30 mins by DiOC2(3) probe based flow cytometry (reference value: 94.3%); format: subcellular; conditions: time 25-30 min
[3] = system: Enterococcus faecium; assay: Bactericidal activity against vancomycin-resistant Enterococcus faecium clinical strain assessed as reduction in colony forming units incubated for 18 hrs in broth followed by culturing on agar plate for 24 hrs; format: functional; conditions: time 42 hrs, read-out: MBC99.9
[4] = system: Pseudomonas aeruginosa; assay: Antibacterial activity against Pseudomonas aeruginosa ATCC 27853 assessed as inhibition of bacterial growth incubated for 18 hrs by broth microdilution method; format: functional
[5] = system: Enterococcus faecalis; assay: Antibacterial activity against Enterococcus faecalis ATCC 29212 assessed as inhibition of bacterial growth measured for 18 hrs by OD600 based analysis; format: functional, organism-based
[6] = system: Enterococcus faecium; assay: Ratio of MBC to MIC for vancomycin-resistant Enterococcus faecium clinical strain; format: functional
[7] = system: Staphylococcus aureus; assay: Antibacterial activity against vancomycin-intermediate Staphylococcus aureus ATCC 700699 assessed as inhibition of bacterial growth measured for 18 hrs by OD600 based analysis; format: functional, organism-based
[8] = system: Cell membrane; assay: Induction of cell membrane depolarization in Staphylococcus aureus Newman assessed as bacterial cells with polarized membrane potential at 4 times MIC incubated for 25 to 30 mins by DiOC2(3) probe based flow cytometry (reference value: 94.3%); format: subcellular; conditions: time 25-30 min
[9] = system: Staphylococcus aureus; assay: Bactericidal activity against vancomycin-intermediate Staphylococcus aureus ATCC 700699 assessed as reduction in colony forming units incubated for 18 hrs in broth followed by culturing on agar plate for 24 hrs; format: functional; conditions: time 42 hrs, read-out: MBC99.9
[10] = system: Staphylococcus aureus; assay: Antibacterial activity against biofilm producer Staphylococcus aureus RN450 assessed as inhibition of bacterial growth incubated for 18 hrs by broth microdilution method; format: functional
[11] = system: Staphylococcus epidermidis; assay: Bactericidal activity against linezolid-resistant Staphylococcus epidermidis NIL 4399/19 assessed as reduction in colony forming units incubated for 18 hrs in broth followed by culturing on agar plate for 24 hrs; format: functional; conditions: time 42 hrs, read-out: MBC99.9
[12] = system: Cell membrane; assay: Induction of cell membrane depolarization in methicillin-resistant Staphylococcus aureus 19449 assessed as bacterial cells with depolarized membrane potential at 2XMIC incubated for 25 to 30 mins by DiOC2(3) probe based flow cytometry (reference value: 0.7%); format: subcellular; conditions: time 25-30 min
[13] = Intrinsic clearance in rat liver microsomes at 0.4 mg/ml preincubated for 10 mins followed by NADPH-regenerating system addition for 60 mins and measured per mg of protein by UPLC-MS analysis; format: ADME, Microsome; conditions: time 70 min, read-out: CLH
[14] = system: Staphylococcus aureus; assay: Ratio of MBC to MIC for biofilm producer Staphylococcus aureus RN450; format: functional
[15] = system: Cell membrane; assay: Induction of cell membrane depolarization in Staphylococcus aureus Newman assessed as bacterial cells with polarized membrane potential at 2XMIC incubated for 25 to 30 mins by DiOC2(3) probe based flow cytometry (reference value: 94.3%); format: subcellular; conditions: time 25-30 min
[16] = system: Staphylococcus epidermidis; assay: Antibacterial activity against linezolid-resistant Staphylococcus epidermidis NIL 4399/19 assessed as inhibition of bacterial growth incubated for 18 hrs by broth microdilution method; format: functional
[17] = system: Escherichia coli; assay: Antibacterial activity against Escherichia coli ATCC 25922 assessed as inhibition of bacterial growth incubated for 18 hrs by broth microdilution method; format: functional
[18] = system: Staphylococcus aureus; assay: Bactericidal activity against vancomycin-intermediate Staphylococcus aureus ATCC 700699 assessed as log reduction of bacterial colony forming units at 4 times MIC incubated for 20 hrs in broth followed by culturing on agar plate for 24 hrs by time-killing assay; format: functional; conditions: time 44 hrs
[19] = Cytotoxicity against human BJ cells assessed as reduction in cell viability incubated for 24 hrs by MTT assay; format: toxicity, cell-based
[20] = system: Staphylococcus epidermidis; assay: Bactericidal activity against methicillin- susceptible Staphylococcus epidermidis ATCC 12228 assessed as reduction in colony forming units incubated for 18 hrs in broth followed by culturing on agar plate for 24 hrs; format: functional; conditions: time 42 hrs, read-out: MBC99.9
[21] = system: Cell membrane; assay: Induction of cell membrane depolarization in Staphylococcus aureus Newman assessed as bacterial cells with depolarized membrane potential at MIC incubated for 25 to 30 mins by DiOC2(3) probe based flow cytometry (reference value: 1.6%); format: subcellular; conditions: time 25-30 min
[22] = system: Staphylococcus aureus; assay: Bactericidal activity against methicillin-susceptible Staphylococcus aureus ATCC 25923 assessed as reduction in colony forming units incubated for 18 hrs in broth followed by culturing on agar plate for 24 hrs; format: functional; conditions: time 42 hrs, read-out: MBC99.9
[23] = system: Cell membrane; assay: Induction of cell membrane depolarization in vancomycin-resistant Enterococcus faecium clinical strain assessed as bacterial cells with depolarized membrane potential at MIC incubated for 25 to 30 mins by DiOC2(3) probe based flow cytometry (reference value: 0.8%); format: subcellular; conditions: time 25-30 min
[24] = system: Cell membrane; assay: Induction of cell membrane depolarization in Staphylococcus aureus Newman assessed as bacterial cells with depolarized membrane potential at 4 times MIC incubated for 25 to 30 mins by DiOC2(3) probe based flow cytometry (reference value: 1.6%); format: subcellular; conditions: time 25-30 min
[25] = system: Staphylococcus aureus; assay: Ratio of MBC to MIC for methicillin-susceptible Staphylococcus aureus ATCC 25923; format: functional
[26] = system: Cell membrane; assay: Induction of cell membrane depolarization in vancomycin-resistant Enterococcus faecium clinical strain assessed as bacterial cells with polarized membrane potential at MIC incubated for 25 to 30 mins by DiOC2(3) probe based flow cytometry (reference value: 96.8%); format: subcellular; conditions: time 25-30 min
[27] = system: Enterococcus faecium; assay: Antibacterial activity against vancomycin-resistant Enterococcus faecium assessed as inhibition of bacterial growth incubated for 18 hrs by broth microdilution method; format: functional
[28] = Cytotoxicity against human BJ cells assessed as cell viability at 25 ug/ml incubated for 24 hrs by MTT assay; format: toxicity, cell-based; conditions: at 25 µg/mL, read-out: Activity
[29] = system: Cell membrane; assay: Induction of cell membrane depolarization in vancomycin-resistant Enterococcus faecium clinical strain assessed as bacterial cells with depolarized membrane potential at 2XMIC incubated for 25 to 30 mins by DiOC2(3) probe based flow cytometry (reference value: 0.8%); format: subcellular; conditions: time 25-30 min
[30] = system: Streptococcus pneumoniae; assay: Antibacterial activity against Oxacillin-resistant Streptococcus pneumoniae O/19/4541 assessed as inhibition of bacterial growth incubated for 18 hrs by broth microdilution method; format: functional
[31] = system: Enterococcus faecalis; assay: Bactericidal activity against Enterococcus faecalis ATCC 29212 assessed as reduction in colony forming units incubated for 18 hrs in broth followed by culturing on agar plate for 24 hrs; format: functional; conditions: time 42 hrs, read-out: MBC99.9
[32] = system: Staphylococcus aureus; assay: Antibacterial activity against methicillin-susceptible Staphylococcus aureus ATCC 25923 assessed as inhibition of bacterial growth measured for 18 hrs by OD600 based analysis; format: functional, organism-based
[33] = system: Cell membrane; assay: Induction of cell membrane depolarization in vancomycin-resistant Enterococcus faecium clinical strain assessed as ratio of red to green fluorescence intensity at MIC incubated for 25 to 30 mins by DiOC2(3) probe based flow cytometry; format: subcellular; conditions: time 25-30 min
[34] = system: Staphylococcus aureus; assay: Antibacterial activity against methicillin-resistant Staphylococcus aureus clinical strain 19449 assessed as inhibition of bacterial growth incubated for 18 hrs by broth microdilution method; format: functional
[35] = system: Cell membrane; assay: Induction of cell membrane depolarization in methicillin-resistant Staphylococcus aureus 19449 assessed as bacterial cells with depolarized membrane potential at MIC incubated for 25 to 30 mins by DiOC2(3) probe based flow cytometry (reference value: 0.7%); format: subcellular; conditions: time 25-30 min

## O=C(Nc1cccc(Cl)c1)NC1CCN(CCC(Oc2cccc(C(F)(F)F)c2)c2ccccc2)CC1 (racemic)
[1]
  MIC: 1.56 µg/mL (≈ 2.93 µM)
[2]
  Activity: 0.6%
[3]
  MBC: 6.25 µg/mL (≈ 11.7 µM)
[4]
  MIC: > 12.5 µg/mL
[5]
  Activity: Active
[6]
  Ratio: 4
[7]
  Activity: Active
[8]
  Activity: 0%
[9]
  MBC: 12.5 µg/mL (≈ 23.5 µM)
[10]
  MIC: 1.56 µg/mL (≈ 2.93 µM)
[11]
  MBC: 6.25 µg/mL (≈ 11.7 µM)
[12]
  Activity: 96.8%
[13]
  microsomal CLint: 8.94 µL/min/mg
[14]
  Ratio: 4
[15]
  Activity: 0.1%
[16]
  MIC: 3.12 µg/mL (≈ 5.87 µM)
[17]
  MIC: > 12.5 µg/mL
[18]
  Activity: >=3 log10CFU/ml
[19]
  IC50 at 24 h: > 25 µg/mL
[20]
  MBC: 3.12 µg/mL (≈ 5.87 µM)
[21]
  Activity: 89%
[22]
  MBC: 12.5 µg/mL (≈ 23.5 µM)
[23]
  Activity: 34.8%
[24]
  Activity: 89.8%
[25]
  Ratio: 4
[26]
  Activity: 59.3%
[27]
  MIC: 1.56 µg/mL (≈ 2.93 µM)
[28]
  viability at 24 h, 25 ug/ml: 97%
[29]
  Activity: 92.7%
[30]
  MIC: 12.5 µg/mL (≈ 23.5 µM)
[31]
  MBC: 6.25 µg/mL (≈ 11.7 µM)
[32]
  Activity: Active
[33]
  Ratio: 0.2
[34]
  MIC: 0.78 µg/mL (≈ 1.47 µM)
[35]
  Activity: 91.6%

Reference: ChEMBL document CHEMBL5346933, “Design and synthesis of novel arylurea derivatives of aryloxy(1-phenylpropyl) alicyclic diamines with antimicrobial activity against multidrug-resistant Gram-positive bacteria” (Eur J Med Chem, 2023)
